Assay [1] has as its target Serine/threonine-protein kinase WNK2 (Homo sapiens) (UniProt Q9Y3S1). The assay is described as follows: Selectivity interaction (Upstate Kinase Profiler service (Millipore)) EUB0000056c WNK2. The conditions noted are these: at 1 µM.
Assay [2] concerns the target T1, Tyrosine-protein kinase ITK/TSK (Homo sapiens) (UniProt Q08881).
T1 sequence (whole entry): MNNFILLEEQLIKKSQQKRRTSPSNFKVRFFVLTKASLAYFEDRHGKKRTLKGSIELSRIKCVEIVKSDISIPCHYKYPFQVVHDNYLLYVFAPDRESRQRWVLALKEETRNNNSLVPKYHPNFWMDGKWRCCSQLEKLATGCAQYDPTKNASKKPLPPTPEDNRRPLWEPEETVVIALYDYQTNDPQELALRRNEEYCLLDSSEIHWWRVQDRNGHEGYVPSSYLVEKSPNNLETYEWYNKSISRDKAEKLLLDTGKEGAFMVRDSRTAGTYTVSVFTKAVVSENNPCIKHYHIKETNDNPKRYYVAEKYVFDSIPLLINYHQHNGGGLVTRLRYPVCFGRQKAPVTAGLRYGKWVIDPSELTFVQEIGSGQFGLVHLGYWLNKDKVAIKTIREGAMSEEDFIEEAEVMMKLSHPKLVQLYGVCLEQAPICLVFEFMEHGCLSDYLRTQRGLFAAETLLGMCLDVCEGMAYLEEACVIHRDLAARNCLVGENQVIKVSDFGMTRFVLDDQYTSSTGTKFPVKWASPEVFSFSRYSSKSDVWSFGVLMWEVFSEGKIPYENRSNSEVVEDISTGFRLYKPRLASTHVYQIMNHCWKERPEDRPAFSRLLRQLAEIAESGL
In words: Selectivity interaction (Ambit KINOMEscan and KiNATiv profiling in Jurkat cells) EUB0000090b ITK. The conditions noted are these: at 1 µM. Type of assay: cell-based.

Assay [3] has as its target Mitogen-activated protein kinase kinase kinase 4 (Homo sapiens) (UniProt Q9Y6R4). The conditions noted are these: at 10 µM.
Assay [4] addresses T2, Serine/threonine-protein kinase NLK (Homo sapiens) (UniProt Q9UBE8).
T2 sequence (whole entry): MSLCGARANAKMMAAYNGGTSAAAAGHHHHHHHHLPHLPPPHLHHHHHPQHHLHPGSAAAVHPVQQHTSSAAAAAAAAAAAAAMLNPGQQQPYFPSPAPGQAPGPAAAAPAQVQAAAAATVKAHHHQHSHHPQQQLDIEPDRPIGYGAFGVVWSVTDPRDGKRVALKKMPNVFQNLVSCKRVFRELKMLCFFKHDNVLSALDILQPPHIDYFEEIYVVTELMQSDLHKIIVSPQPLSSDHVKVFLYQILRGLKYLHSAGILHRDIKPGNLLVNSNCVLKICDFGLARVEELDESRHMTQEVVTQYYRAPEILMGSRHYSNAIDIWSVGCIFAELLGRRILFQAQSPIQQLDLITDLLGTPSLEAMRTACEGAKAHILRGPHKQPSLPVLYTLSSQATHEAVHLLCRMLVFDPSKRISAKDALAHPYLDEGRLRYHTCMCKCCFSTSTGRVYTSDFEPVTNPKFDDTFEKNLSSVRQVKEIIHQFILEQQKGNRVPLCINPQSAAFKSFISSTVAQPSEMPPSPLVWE
The assay is described as follows: Selectivity interaction (KinomeScan (DiscoverX)) EUB0001049a NLK. The conditions noted are these: at 1 µM.

In assay [5] the target is Tyrosine-protein kinase JAK1 (Homo sapiens, UniProt P23458). In words: Selectivity interaction (KinomeScan (DiscoverX)) EUB0000655a JAK1. The conditions noted are these: at 10 µM.
Chain of Tyrosine-protein kinase JAK1 (P23458 whole entry): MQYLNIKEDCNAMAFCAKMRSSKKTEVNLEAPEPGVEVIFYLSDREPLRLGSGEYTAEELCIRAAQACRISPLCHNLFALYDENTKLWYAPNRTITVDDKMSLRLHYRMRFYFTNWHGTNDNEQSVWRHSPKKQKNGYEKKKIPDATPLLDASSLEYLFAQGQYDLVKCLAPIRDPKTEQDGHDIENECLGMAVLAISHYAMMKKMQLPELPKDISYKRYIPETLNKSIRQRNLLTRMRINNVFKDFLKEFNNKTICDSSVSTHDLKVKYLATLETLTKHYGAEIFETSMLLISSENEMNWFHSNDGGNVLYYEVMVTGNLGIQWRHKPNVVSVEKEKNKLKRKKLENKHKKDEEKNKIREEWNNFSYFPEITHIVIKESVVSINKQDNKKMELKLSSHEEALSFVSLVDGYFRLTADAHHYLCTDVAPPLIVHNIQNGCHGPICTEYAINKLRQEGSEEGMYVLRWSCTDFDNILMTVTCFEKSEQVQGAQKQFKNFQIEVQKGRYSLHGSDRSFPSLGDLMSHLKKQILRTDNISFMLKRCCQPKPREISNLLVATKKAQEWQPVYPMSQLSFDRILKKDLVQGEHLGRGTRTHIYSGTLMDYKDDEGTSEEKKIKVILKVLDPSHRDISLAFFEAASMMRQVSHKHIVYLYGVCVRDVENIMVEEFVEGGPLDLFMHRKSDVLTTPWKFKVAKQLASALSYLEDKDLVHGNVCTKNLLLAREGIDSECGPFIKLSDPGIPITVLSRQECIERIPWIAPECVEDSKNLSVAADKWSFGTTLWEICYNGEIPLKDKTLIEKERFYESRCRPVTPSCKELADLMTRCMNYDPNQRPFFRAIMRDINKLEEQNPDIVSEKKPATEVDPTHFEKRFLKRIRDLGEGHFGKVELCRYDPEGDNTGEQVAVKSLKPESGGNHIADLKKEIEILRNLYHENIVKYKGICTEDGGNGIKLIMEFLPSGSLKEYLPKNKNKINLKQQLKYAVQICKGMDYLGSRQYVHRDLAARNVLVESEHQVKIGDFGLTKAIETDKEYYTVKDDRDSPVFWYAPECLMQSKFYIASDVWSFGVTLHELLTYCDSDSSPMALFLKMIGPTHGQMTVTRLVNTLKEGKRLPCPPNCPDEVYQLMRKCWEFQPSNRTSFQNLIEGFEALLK
The target in assay [6] is T3, Dual specificity mitogen-activated protein kinase kinase 6 (Homo sapiens) (UniProt P52564).
T3 sequence (whole entry): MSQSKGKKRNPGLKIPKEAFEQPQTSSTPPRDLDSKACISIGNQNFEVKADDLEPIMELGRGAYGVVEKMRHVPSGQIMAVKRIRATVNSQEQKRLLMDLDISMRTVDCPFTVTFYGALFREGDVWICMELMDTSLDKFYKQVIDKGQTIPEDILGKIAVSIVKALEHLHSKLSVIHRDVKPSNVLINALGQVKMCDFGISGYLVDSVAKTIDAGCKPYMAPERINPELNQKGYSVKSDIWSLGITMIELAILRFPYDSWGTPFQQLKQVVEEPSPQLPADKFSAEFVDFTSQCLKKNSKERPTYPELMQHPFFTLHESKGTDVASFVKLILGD
In words: Selectivity interaction (KinomeScan (DiscoverX)) EUB0000666a MAP2K6. The conditions noted are these: at 10 µM.

Assay [7] has as its target Serine/threonine-protein kinase PAK 3 (Homo sapiens) (UniProt O75914). In words: Selectivity interaction (Kinase panel (Invitrogen)) EUB0000639a PAK3. The conditions noted are these: at 200 nM.
In assay [8] the target is Cyclin-G-associated kinase (Homo sapiens, UniProt O14976). In words: Selectivity interaction (Competition-binding assay (DiscoverX)) EUB0000229b GAK.
Assay [9] addresses T4, Dual specificity protein kinase TTK (Homo sapiens) (UniProt P33981).
T4 sequence (whole entry): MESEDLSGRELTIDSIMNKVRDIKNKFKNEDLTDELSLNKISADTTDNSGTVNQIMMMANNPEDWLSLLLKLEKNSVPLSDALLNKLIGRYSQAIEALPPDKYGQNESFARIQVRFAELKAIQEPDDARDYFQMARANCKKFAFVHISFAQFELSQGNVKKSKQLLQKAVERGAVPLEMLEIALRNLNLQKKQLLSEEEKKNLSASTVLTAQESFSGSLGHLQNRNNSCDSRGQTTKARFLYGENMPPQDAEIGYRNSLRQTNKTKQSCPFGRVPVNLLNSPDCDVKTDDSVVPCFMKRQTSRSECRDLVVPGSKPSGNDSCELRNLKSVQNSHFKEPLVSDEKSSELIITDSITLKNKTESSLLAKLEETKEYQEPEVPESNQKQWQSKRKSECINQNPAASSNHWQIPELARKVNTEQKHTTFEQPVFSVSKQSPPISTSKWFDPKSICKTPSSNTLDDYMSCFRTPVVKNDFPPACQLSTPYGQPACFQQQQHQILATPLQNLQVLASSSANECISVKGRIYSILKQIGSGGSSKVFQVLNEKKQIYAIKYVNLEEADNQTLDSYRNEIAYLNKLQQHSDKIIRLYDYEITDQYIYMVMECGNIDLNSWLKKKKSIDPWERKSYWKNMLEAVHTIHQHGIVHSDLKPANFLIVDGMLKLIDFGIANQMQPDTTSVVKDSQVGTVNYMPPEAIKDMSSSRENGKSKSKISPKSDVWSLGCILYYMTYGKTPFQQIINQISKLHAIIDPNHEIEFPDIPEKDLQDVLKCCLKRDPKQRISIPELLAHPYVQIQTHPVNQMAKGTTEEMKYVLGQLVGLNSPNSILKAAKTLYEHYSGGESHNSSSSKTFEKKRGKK
In words: Selectivity interaction (Kinase panel (DSF assay)) EUB0001559a TTK.

Chain of Serine/threonine-protein kinase WNK2 (Homo sapiens) (Q9Y3S1 whole entry): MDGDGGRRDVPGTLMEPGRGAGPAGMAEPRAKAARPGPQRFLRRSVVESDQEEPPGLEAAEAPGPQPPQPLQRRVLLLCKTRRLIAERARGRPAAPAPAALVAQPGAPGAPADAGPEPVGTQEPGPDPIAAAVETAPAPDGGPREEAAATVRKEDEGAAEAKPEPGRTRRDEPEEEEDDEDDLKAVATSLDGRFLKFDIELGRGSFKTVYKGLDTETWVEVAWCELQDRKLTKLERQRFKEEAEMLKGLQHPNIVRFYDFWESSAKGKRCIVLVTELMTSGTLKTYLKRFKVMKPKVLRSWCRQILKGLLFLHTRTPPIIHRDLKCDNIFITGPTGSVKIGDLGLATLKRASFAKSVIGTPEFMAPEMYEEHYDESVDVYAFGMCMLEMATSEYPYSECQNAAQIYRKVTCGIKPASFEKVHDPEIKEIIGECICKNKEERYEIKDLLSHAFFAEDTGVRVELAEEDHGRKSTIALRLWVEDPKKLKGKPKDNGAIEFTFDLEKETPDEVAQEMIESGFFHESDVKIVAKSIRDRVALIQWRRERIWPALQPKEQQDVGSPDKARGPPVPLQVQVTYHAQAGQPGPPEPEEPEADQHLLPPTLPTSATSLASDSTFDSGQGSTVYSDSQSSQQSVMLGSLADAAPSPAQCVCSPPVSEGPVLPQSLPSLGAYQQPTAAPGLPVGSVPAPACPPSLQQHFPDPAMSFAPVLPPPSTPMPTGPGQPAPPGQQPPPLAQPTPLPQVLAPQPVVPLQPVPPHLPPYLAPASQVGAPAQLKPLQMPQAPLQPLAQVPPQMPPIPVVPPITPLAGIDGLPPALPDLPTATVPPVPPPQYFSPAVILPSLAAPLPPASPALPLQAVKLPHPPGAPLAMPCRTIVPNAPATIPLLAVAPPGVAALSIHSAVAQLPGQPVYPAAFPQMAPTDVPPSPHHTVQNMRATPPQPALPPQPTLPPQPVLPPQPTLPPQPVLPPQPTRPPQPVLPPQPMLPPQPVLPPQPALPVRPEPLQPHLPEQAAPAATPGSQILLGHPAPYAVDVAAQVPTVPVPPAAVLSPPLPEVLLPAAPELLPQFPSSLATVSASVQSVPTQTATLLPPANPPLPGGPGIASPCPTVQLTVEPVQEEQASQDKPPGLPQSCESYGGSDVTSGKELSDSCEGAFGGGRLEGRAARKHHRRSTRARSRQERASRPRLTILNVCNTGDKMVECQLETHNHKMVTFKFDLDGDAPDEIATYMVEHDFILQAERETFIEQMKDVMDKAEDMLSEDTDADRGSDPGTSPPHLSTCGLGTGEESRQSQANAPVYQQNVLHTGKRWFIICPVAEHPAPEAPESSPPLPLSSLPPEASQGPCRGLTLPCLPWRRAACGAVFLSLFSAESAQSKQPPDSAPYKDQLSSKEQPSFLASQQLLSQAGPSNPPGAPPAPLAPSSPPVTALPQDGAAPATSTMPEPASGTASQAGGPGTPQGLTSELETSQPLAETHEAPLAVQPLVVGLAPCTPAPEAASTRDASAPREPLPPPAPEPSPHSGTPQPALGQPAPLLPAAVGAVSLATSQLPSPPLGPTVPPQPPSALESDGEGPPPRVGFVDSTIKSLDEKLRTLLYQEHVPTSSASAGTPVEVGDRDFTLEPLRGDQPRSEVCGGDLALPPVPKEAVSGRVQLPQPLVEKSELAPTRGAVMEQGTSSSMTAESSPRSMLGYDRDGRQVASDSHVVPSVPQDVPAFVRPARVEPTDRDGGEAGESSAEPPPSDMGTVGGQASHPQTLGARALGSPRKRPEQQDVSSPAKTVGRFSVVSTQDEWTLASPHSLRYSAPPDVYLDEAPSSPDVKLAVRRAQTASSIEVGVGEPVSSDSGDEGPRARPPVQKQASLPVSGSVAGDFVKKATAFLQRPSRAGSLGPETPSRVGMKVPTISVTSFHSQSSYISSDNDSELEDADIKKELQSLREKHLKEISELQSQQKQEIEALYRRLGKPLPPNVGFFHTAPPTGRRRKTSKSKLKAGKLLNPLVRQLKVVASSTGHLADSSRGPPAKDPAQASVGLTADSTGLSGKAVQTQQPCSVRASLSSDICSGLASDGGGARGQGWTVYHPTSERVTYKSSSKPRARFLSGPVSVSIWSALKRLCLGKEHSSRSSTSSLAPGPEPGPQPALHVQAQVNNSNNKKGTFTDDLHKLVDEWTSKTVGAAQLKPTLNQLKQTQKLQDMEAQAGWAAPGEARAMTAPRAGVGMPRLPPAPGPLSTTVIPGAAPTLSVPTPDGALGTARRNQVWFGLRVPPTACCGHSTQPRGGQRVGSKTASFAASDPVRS
Chain of Mitogen-activated protein kinase kinase kinase 4 (Homo sapiens) (Q9Y6R4 whole entry): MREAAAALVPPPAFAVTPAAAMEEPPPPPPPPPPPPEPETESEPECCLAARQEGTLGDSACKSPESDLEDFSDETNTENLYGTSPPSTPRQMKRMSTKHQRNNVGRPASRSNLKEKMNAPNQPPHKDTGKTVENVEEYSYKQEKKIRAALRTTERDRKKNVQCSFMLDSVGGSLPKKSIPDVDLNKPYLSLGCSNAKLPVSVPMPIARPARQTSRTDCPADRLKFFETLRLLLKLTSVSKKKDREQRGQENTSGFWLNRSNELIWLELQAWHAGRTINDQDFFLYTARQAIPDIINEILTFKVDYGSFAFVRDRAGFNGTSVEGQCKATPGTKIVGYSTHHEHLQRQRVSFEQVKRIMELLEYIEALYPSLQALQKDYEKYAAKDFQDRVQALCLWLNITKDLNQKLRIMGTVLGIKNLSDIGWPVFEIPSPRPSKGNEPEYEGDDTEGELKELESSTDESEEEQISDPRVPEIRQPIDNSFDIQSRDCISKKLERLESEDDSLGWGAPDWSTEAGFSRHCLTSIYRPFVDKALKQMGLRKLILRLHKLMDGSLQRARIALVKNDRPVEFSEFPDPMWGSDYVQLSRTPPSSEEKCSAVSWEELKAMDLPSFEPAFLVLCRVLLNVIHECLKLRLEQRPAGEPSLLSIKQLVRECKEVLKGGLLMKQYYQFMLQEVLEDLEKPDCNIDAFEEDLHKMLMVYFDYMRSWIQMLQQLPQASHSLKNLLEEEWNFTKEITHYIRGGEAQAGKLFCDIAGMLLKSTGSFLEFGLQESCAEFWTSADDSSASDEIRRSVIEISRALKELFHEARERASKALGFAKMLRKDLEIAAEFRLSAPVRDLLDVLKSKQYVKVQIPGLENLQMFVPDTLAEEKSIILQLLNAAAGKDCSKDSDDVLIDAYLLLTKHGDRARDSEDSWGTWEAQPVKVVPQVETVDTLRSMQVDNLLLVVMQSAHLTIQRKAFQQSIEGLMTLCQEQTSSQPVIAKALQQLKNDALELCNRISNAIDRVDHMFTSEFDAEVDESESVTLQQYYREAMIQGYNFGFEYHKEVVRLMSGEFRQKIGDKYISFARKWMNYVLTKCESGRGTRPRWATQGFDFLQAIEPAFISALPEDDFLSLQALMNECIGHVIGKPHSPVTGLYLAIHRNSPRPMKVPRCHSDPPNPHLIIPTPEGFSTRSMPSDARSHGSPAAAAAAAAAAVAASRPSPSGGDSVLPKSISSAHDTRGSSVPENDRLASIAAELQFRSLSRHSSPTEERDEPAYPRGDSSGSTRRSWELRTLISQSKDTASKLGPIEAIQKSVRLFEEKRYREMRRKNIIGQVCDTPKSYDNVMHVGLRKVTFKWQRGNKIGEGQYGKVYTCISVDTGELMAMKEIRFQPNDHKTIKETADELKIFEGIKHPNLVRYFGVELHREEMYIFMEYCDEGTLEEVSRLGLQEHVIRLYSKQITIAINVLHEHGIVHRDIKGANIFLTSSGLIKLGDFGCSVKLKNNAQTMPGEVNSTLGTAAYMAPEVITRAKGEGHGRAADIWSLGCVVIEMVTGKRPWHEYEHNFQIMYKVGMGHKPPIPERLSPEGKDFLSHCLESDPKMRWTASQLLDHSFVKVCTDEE

In assay [1], `Cc1ccc(-c2ccc3c(ccc4sc5c(c43)NC[C@@H](C)NC5=O)n2)cn1` had a % of inhibition of 1%.

In assay [2], `CN(C)C/C=C/C(=O)Nc1ccc(C(=O)N2CCCC(Nc3ncc(Cl)c(-c4c[nH]c5ccccc45)n3)C2)cc1` (centres undefined) came in with a % of control of 91%.

`CCN(CC)CCCCNc1ncc2cc(-c3cc(OC)cc(OC)c3)c(NC(=O)NC(C)(C)C)nc2n1`: the % of control in assay [3] came out at 100%.

For the molecule `COc1cc(Nc2nc(C)cc(-c3cnn4nc(OC)ccc34)n2)cc(C(F)(F)F)c1`, in assay [4], the % of control came out at 100%.

`CN(C)CCOc1ccc(-c2nc(-c3ccncc3)c(-c3ccc4c(c3)CC/C4=N\O)[nH]2)cc1` showed a % of control in assay [5] of 100%.

In [6], `O=C(NOC[C@H](O)CO)c1ccc(F)c(F)c1Nc1ccc(I)cc1F` showed a % of control of 100%.

Take `CC[C@@H]1[C@H](F)C(=O)N[C@@H]1COc1nccc2cc(C(N)=O)c(OC)cc12` [ZIMLOVISERTIB]: in assay [7], the % of inhibition turned out to be 0.439%.

For the molecule `COc1cc(N(C)c2ccnc3ccc(C(F)(F)F)cc23)cc(OC)c1OC`, the Kd (in general, the concentration at which binding is half-saturated) in assay [8] was determined as 7.1 µM.

For `CN(C(=O)c1cnn2cccnc12)c1cc2c(cc1N1CCOCC1)C(=O)N(C[C@@H](F)C(C)(C)O)C2`, the dTM in [9] was -0.3 K.

The values above are taken from ChEMBL document CHEMBL5465560, “Selectivity Literature for EUbOPEN Chemogenomic Library” (2024).
